According to ChEMBL document CHEMBL1201862, “PubChem BioAssay data set” (2004):
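These data come from cells grown in 96-well plates and exposed to compound for 48 hours at five concentrations. GI50 = concentration required for 50% inhibition of growth.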 Calls of active or inactive are those of the source. Rule as the data show it: active = GI50 up to about 1.1 µM and inactive = higher.

How the values were obtained:
Test in all cases: DTP human tumour cell line panel, 48 h
M14 = tested on: M14
SK-OV-3 = tested on: SK-OV-3
OVCAR-4 = tested on: OVCAR-4
HL-60 = tested on: HL-60
UACC-62 = tested on: UACC-62
T47D = tested on: T47D
KM12 = tested on: KM12
SF-295 = tested on: SF-295
MDA-MB-231 = tested on: MDA-MB-231
COLO 205 = tested on: COLO 205
CCRF-CEM = tested on: CCRF-CEM
DU-145 = tested on: DU-145
Hs-578T = tested on: Hs-578T
U-251 = tested on: U-251
OVCAR-8 = tested on: OVCAR-8
HCT-15 = tested on: HCT-15
HOP-92 = tested on: HOP-92
HOP-62 = tested on: HOP-62
SF-539 = tested on: SF-539
TK-10 = tested on: TK-10

Structure (SMILES) | GI50 (M14) | GI50 (SK-OV-3) | GI50 (OVCAR-4) | GI50 (HL-60) | GI50 (UACC-62) | GI50 (T47D) | GI50 (KM12) | GI50 (SF-295) | GI50 (MDA-MB-231) | GI50 (COLO 205) | GI50 (CCRF-CEM) | GI50 (DU-145) | GI50 (Hs-578T) | GI50 (U-251) | GI50 (OVCAR-8) | GI50 (HCT-15) [µM] | GI50 (HOP-92) | GI50 (HOP-62) | GI50 (SF-539) | GI50 (TK-10)
COC(=O)c1ccccc1CC1Cc2cc3c(cc2C1=O)CCC3 (centres undefined) | 10.4 µM (inactive) | 18.5 µM (inactive) | 19.2 µM (inactive) | 3.83 µM (inactive) | 9.77 µM (inactive) | 16 µM (inactive) | 8.67 µM (inactive) | 14.6 µM (inactive) | 8.85 µM (inactive) | 8.59 µM (inactive) | 6.53 µM (inactive) | 27.7 µM (inactive) | 19.6 µM (inactive) | 10.4 µM (inactive) | 20.1 µM (inactive) | 4.02 | 13.7 µM (inactive) | 17.1 µM (inactive) | 16.8 µM (inactive) | 16.5 µM (inactive)
CCCCCCCCCCCCCCCC[N+](C)(C)Cc1ccc(F)cc1 | 1.6 µM (inactive) | 2.2 µM (inactive) | 1.55 µM (inactive) | 0.184 µM (active) | 1.67 µM (inactive) | 3.33 µM (inactive) | 1.26 µM (inactive) | 2.37 µM (inactive) | 1.32 µM (inactive) | 1.61 µM (inactive) | 0.771 µM (active) | 3.68 µM (inactive) | 1.89 µM (inactive) | 1.43 µM (inactive) | 1.51 µM (inactive) | 8.43 | 1.27 µM (inactive) | 1.5 µM (inactive) | 1.29 µM (inactive) | 1.48 µM (inactive)
CC(C)(C)CNCCO | > 100 µM (inactive) | > 100 µM (inactive) | > 100 µM (inactive) | > 100 µM (inactive) | > 100 µM (inactive) | > 100 µM (inactive) | > 100 µM (inactive) | > 100 µM (inactive) | > 100 µM (inactive) | > 100 µM (inactive) | > 100 µM (inactive) | > 100 µM (inactive) | > 100 µM (inactive) | > 100 µM (inactive) | > 100 µM (inactive) | > 100 | > 100 µM (inactive) | > 100 µM (inactive) | > 100 µM (inactive) | > 100 µM (inactive)
CN(C)c1ncnc2c1ncn2CCn1cnc2c(N(C)C)ncnc21 | > 100 µM (inactive) | > 100 µM (inactive) | > 100 µM (inactive) | > 100 µM (inactive) | > 100 µM (inactive) | > 100 µM (inactive) | > 100 µM (inactive) | > 100 µM (inactive) | > 100 µM (inactive) | > 100 µM (inactive) | > 100 µM (inactive) | > 100 µM (inactive) | > 100 µM (inactive) | > 100 µM (inactive) | > 100 µM (inactive) | > 100 | > 100 µM (inactive) | > 100 µM (inactive) | > 100 µM (inactive) | > 100 µM (inactive)
COc1ccc(CNc2nc3ccccc3nc2C(=O)O)cc1OC | – | > 100 µM (inactive) | > 100 µM (inactive) | > 100 µM (inactive) | > 100 µM (inactive) | > 100 µM (inactive) | > 100 µM (inactive) | > 100 µM (inactive) | > 100 µM (inactive) | > 100 µM (inactive) | > 100 µM (inactive) | > 100 µM (inactive) | > 100 µM (inactive) | 97.7 µM (inactive) | > 100 µM (inactive) | 83.8 | 17.1 µM (inactive) | > 100 µM (inactive) | > 100 µM (inactive) | > 100 µM (inactive)
N=c1ccn2c(n1)OC1C(OP(=O)(O)O)C(CO)OC12 (centres undefined) | 1.02 µM (active) | > 53.6 µM (inactive) | > 100 µM (inactive) | 0.597 µM (active) | 10.4 µM (inactive) | > 100 µM (inactive) | > 100 µM (inactive) | 38.1 µM (inactive) | > 100 µM (inactive) | > 70.6 µM (inactive) | 0.0467 µM (active) | 7.31 µM (inactive) | > 100 µM (inactive) | > 57.8 µM (inactive) | 5.45 µM (inactive) | > 100 | > 100 µM (inactive) | 1.21 µM (inactive) | 41.1 µM (inactive) | > 100 µM (inactive)
CN(C(=O)c1ccc(Cl)s1)C(=S)N(C)C(=O)c1ccc(Cl)s1 | > 10 µM (inactive) | > 10 µM (inactive) | > 10 µM (inactive) | > 10 µM (inactive) | > 10 µM (inactive) | > 10 µM (inactive) | > 10 µM (inactive) | > 10 µM (inactive) | > 10 µM (inactive) | > 10 µM (inactive) | > 10 µM (inactive) | > 10 µM (inactive) | > 10 µM (inactive) | > 10 µM (inactive) | > 10 µM (inactive) | > 10 | > 10 µM (inactive) | > 10 µM (inactive) | > 10 µM (inactive) | > 10 µM (inactive)
COc1ccc(C2(CC(C)O)SCCCS2)cc1 (centres undefined) | > 100 µM (inactive) | > 100 µM (inactive) | > 100 µM (inactive) | 37.2 µM (inactive) | > 100 µM (inactive) | > 100 µM (inactive) | > 100 µM (inactive) | > 100 µM (inactive) | > 100 µM (inactive) | > 100 µM (inactive) | 63.1 µM (inactive) | > 100 µM (inactive) | > 100 µM (inactive) | > 100 µM (inactive) | > 100 µM (inactive) | > 100 | > 100 µM (inactive) | > 100 µM (inactive) | > 100 µM (inactive) | > 100 µM (inactive)
C=CCCC(=O)CC(O)(C(F)(F)F)C(F)(F)F | > 100 µM (inactive) | > 100 µM (inactive) | > 100 µM (inactive) | > 100 µM (inactive) | > 100 µM (inactive) | > 100 µM (inactive) | > 100 µM (inactive) | > 100 µM (inactive) | > 100 µM (inactive) | > 100 µM (inactive) | > 100 µM (inactive) | > 100 µM (inactive) | > 100 µM (inactive) | > 100 µM (inactive) | > 100 µM (inactive) | > 100 | > 100 µM (inactive) | – | > 100 µM (inactive) | > 100 µM (inactive)
C=C(Cl)COC(=O)Nc1cccc(Cl)c1 | 35.4 µM (inactive) | 72.8 µM (inactive) | 16.2 µM (inactive) | 24.4 µM (inactive) | 20.6 µM (inactive) | 22.9 µM (inactive) | 31.6 µM (inactive) | 25.7 µM (inactive) | 40.4 µM (inactive) | 31.7 µM (inactive) | 28.2 µM (inactive) | 31.1 µM (inactive) | 34 µM (inactive) | 34.4 µM (inactive) | 32.6 µM (inactive) | 28.6 | 22.7 µM (inactive) | 38.3 µM (inactive) | 54.8 µM (inactive) | 60 µM (inactive)
COc1ccccc1C1c2cc3c(cc2OC2(OC)COC(=O)C12)OCO3 (centres undefined) | 8.2 µM (inactive) | 18.8 µM (inactive) | 19.1 µM (inactive) | 3.03 µM (inactive) | 6.04 µM (inactive) | 34.5 µM (inactive) | 4.92 µM (inactive) | 13.2 µM (inactive) | 18.2 µM (inactive) | 6.56 µM (inactive) | 12.9 µM (inactive) | 20.4 µM (inactive) | 5.83 µM (inactive) | 14.2 µM (inactive) | 24.3 µM (inactive) | 5.33 | 40.4 µM (inactive) | 22.2 µM (inactive) | 12.3 µM (inactive) | 39.4 µM (inactive)
CC(C)S(=O)(=O)ON1C(=O)c2ccc(N(C)C)cc2C1=O | 17.2 µM (inactive) | > 50.7 µM (inactive) | 17.7 µM (inactive) | 3.41 µM (inactive) | 15.5 µM (inactive) | 9.4 µM (inactive) | 21.4 µM (inactive) | 30.9 µM (inactive) | 6.17 µM (inactive) | 2.86 µM (inactive) | 0.918 µM (active) | > 10 µM (inactive) | > 10 µM (inactive) | 15.8 µM (inactive) | 2.65 µM (inactive) | 13.6 | 7.35 µM (inactive) | 42.5 µM (inactive) | 19 µM (inactive) | 20.5 µM (inactive)
O=C(Nc1ccccc1)N(C1=NCC(CI)S1)c1ccc(F)c(F)c1 (centres undefined) | – | > 100 µM (inactive) | 29.4 µM (inactive) | 21.4 µM (inactive) | – | 18.3 µM (inactive) | 32.6 µM (inactive) | > 100 µM (inactive) | 24.8 µM (inactive) | 56.1 µM (inactive) | 19.3 µM (inactive) | > 100 µM (inactive) | 64 µM (inactive) | 54.1 µM (inactive) | 47.8 µM (inactive) | 28.1 | 7.03 µM (inactive) | > 100 µM (inactive) | 33.2 µM (inactive) | 44 µM (inactive)
c1ccc(C2C3=C(CCCC3)Nc3nc4cc5ccccc5cc4n32)cc1 (centres undefined) | > 100 µM (inactive) | > 100 µM (inactive) | > 100 µM (inactive) | > 100 µM (inactive) | > 100 µM (inactive) | > 100 µM (inactive) | > 100 µM (inactive) | > 100 µM (inactive) | > 100 µM (inactive) | > 100 µM (inactive) | > 100 µM (inactive) | > 100 µM (inactive) | > 100 µM (inactive) | > 100 µM (inactive) | > 100 µM (inactive) | > 100 | > 100 µM (inactive) | – | > 100 µM (inactive) | –
CN1CCN(c2ccc3[nH]c(-c4ccc5[nH]c(-c6ccc(O)cc6)nc5c4)nc3c2)CC1 | 149 µM (inactive) | 664 µM (inactive) | 274 µM (inactive) | 11.9 µM (inactive) | – | 9.4 µM (inactive) | 242 µM (inactive) | – | 481 µM (inactive) | – | – | 329 µM (inactive) | > 100 µM (inactive) | 179 µM (inactive) | – | 224 | 33.7 µM (inactive) | 250 µM (inactive) | 54.8 µM (inactive) | 705 µM (inactive)
